Results reported in patent US8524765B2, “Compounds that modulate intracellular calcium” (Calcimedica, Inc., priority 2007, dated 2013).
Entries after “also recorded” stand apart in the source; their conditions may differ.

Columns and labels:
hCav.1.2/β2/α2δ channels = molecular target: T1, hCav.1.2/β2/α2δ channels (Homo sapiens, UniProt Q13936); assay: Cloned L-type calcium channels in CHO cells (PatchXpress patch clamp); format: cell-based; details: FIG. 16
T1 construct: host or cells: CHO cells
T1 sequence (Q13936 whole entry): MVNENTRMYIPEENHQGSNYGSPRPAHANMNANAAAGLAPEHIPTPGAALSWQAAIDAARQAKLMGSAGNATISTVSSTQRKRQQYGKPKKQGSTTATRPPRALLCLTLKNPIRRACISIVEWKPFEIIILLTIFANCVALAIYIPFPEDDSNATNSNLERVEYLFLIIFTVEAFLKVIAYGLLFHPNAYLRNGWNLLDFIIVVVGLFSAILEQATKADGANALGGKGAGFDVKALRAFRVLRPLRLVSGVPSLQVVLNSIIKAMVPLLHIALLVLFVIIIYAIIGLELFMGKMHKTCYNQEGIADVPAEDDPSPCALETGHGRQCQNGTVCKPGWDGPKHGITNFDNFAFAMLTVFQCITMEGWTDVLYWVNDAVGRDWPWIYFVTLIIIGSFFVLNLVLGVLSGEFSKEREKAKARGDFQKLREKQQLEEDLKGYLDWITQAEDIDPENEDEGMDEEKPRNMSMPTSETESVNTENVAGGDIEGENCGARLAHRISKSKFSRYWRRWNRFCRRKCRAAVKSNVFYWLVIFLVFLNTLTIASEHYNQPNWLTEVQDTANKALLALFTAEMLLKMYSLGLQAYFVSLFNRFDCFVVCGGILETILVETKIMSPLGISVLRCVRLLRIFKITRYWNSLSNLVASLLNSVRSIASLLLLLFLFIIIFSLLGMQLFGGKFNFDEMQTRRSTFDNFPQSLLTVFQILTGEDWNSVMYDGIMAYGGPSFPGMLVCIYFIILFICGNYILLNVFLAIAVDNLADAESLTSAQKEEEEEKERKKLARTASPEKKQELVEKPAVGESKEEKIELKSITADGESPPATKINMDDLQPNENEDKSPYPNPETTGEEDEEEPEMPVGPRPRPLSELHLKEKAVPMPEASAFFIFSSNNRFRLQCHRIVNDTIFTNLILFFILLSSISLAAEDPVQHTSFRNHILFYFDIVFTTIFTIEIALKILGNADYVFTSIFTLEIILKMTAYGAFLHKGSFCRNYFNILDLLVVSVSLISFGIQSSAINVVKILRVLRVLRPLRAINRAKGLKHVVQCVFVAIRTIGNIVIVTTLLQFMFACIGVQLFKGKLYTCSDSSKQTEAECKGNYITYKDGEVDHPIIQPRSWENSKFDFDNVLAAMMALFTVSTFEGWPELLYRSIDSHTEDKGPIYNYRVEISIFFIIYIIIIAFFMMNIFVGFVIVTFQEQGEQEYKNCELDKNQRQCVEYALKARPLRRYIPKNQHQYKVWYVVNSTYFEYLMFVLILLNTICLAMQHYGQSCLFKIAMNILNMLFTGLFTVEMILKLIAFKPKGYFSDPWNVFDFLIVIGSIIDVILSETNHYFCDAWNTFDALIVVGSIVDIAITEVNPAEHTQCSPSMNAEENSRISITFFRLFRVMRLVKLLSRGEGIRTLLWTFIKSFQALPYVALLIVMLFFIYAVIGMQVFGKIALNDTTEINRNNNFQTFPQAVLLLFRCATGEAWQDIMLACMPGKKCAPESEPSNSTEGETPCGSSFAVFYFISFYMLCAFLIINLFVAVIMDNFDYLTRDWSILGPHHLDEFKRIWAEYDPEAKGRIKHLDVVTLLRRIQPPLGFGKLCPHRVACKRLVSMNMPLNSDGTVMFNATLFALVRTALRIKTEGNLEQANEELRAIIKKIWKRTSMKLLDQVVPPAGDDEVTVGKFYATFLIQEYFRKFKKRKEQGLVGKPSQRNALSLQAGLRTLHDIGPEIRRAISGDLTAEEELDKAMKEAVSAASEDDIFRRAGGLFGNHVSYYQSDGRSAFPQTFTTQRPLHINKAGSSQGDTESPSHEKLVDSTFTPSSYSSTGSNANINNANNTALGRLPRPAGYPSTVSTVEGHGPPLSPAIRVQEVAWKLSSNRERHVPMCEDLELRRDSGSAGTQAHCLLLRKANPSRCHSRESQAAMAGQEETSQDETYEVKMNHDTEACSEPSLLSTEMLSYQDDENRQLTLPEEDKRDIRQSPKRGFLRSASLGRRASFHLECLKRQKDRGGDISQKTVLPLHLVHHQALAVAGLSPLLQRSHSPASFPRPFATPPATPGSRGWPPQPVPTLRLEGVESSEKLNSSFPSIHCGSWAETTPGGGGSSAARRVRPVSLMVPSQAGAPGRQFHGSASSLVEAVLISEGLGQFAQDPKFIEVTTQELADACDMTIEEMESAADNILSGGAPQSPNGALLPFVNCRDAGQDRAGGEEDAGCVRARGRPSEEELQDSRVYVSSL
T1 sequence (Q08289 whole entry partner): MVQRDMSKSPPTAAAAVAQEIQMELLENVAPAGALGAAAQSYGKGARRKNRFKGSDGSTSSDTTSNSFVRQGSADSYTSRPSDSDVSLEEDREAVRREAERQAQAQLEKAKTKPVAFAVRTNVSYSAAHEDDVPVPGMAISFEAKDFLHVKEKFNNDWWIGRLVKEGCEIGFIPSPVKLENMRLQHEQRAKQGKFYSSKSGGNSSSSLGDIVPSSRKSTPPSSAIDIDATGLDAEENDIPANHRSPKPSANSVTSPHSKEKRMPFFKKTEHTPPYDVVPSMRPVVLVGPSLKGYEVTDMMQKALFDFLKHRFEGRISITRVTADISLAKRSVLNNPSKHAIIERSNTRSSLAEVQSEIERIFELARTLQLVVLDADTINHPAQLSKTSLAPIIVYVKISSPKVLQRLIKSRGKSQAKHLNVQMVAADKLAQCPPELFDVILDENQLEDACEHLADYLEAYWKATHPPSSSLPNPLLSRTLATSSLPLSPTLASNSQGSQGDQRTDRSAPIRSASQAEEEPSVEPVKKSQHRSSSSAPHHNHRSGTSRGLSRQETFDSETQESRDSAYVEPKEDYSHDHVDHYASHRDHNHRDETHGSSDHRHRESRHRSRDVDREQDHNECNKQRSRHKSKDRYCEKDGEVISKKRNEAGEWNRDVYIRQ
T1 sequence (P54289 25-1103 partner): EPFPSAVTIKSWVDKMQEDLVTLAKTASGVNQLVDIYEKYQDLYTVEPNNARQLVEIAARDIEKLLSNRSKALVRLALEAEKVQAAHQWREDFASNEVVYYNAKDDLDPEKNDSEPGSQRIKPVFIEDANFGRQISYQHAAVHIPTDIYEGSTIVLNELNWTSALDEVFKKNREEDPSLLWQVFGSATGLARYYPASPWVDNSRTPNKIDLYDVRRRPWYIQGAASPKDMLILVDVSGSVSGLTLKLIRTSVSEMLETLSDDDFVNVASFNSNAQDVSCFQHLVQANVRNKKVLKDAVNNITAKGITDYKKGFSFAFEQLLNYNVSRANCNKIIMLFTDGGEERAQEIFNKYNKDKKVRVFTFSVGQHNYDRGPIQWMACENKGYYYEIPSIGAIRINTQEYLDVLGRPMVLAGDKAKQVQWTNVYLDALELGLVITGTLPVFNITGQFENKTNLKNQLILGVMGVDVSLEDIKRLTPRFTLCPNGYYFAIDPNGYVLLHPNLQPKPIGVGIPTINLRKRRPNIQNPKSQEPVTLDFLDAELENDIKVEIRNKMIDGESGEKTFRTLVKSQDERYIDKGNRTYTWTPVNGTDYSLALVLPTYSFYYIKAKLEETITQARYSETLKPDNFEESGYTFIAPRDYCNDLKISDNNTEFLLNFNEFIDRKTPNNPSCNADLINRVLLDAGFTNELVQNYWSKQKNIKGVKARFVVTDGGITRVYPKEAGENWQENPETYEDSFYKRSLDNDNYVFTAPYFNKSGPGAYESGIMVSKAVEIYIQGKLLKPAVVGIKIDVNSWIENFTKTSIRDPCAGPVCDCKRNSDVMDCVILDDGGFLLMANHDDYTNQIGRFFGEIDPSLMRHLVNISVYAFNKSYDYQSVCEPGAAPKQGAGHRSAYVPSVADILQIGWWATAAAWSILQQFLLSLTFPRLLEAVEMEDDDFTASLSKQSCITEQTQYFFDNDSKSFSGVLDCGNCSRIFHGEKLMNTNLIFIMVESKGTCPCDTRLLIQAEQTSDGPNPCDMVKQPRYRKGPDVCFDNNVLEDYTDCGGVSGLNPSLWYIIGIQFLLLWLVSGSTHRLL
Experimental: Compound A stock solutions were prepared in dimethyl sulfoxide (DMSO) and stored frozen. Compound A concentrations were prepared fresh daily by diluting stock solutions into an appropriate HEPES-buffered physiological saline solution. Each test compound formulation was sonicated at room temperatrue for at least 20 minutes to facilitate dissolution. A glass-lined 96-well compound plate was loaded with the appropriate amounts of test and control solutions, and placed in the plate well of PatchXpress®. The effects of five concentrations were evaluated. Stock solutions of the positive control were prepared in batches and frozen. The positive control concentration was prepared fresh daily by diluting stock solutions into HB-PS. The final DMSO concentration was 0.3%.
Cells were maintained in tissue culture incubators per ChanTest SOP. […]
In preparation for a recording session, intracellular solution was loaded into the intracellular compartments of the planar electrode. After establishment of a whole-cell configuration, membrane currents were recorded using dual-channel patch clamp amplifiers in the PatchXpress® system. […] Onset and steady state block of hCav.1.2/β2/α2δ channels were measured using a stimulus voltage pattern consisting of a depolarizing test pulse at 10 s intervals from a −80 mV holding potential. […] Peak current was measured during the step to 10 mV. […]

SOCE = assay: Selectivity profile; details: FIG. 8
HEK[STIM1] cells = assay: STIM1-dependent Ca2+ entry in STIM1-overexpressing cells; format: cell-based, human; details: HEK293 overexpressing STIM1, no Tg store depletion; FIG. 13
Experimental: To test whether the Ca^2+ entry pathway activated by STIM1 overexpression is pharmacologically similar to endogenous SOCE, HEK[STIM1] cells were pre-incubated with increasing doses of 2-APB and STIM1-dependent Ca^2+ entry was measured.

hOrail/hSTIM1 [1] = molecular target: T2, hOrail/hSTIM1 (Homo sapiens, UniProt Q96D31); assay: Recombinant hOrail/hSTIM1-dependent Ca2+ entry in stable cells; format: cell-based; details: FIG. 14
T2 construct: expressed in transfected cells
T2 sequence (Q96D31 whole entry): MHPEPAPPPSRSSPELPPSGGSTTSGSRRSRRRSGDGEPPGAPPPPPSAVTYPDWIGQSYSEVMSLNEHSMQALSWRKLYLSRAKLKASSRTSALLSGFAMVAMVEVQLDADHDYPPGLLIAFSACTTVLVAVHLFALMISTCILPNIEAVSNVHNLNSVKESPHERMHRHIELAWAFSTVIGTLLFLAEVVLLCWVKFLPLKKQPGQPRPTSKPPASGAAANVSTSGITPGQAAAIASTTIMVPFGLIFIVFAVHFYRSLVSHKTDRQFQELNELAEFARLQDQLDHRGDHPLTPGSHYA
T2 sequence (Q13586 23-685 partner): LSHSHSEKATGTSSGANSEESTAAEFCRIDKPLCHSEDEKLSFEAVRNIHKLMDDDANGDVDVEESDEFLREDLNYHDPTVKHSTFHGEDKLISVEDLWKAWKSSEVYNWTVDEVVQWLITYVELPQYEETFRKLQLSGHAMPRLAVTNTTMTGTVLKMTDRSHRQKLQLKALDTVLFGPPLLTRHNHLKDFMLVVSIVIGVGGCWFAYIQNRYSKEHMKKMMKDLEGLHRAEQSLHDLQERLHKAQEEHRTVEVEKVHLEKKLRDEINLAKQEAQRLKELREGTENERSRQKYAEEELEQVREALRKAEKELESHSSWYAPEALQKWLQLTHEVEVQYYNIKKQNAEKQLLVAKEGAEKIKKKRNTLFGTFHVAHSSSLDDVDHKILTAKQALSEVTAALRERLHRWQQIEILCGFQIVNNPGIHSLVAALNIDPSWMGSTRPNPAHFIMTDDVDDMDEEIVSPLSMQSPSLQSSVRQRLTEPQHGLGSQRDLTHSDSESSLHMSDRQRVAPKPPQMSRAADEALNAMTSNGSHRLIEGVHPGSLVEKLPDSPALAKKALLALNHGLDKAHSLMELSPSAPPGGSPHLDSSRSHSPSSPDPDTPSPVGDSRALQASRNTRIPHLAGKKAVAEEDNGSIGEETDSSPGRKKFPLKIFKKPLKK

[2] = Rat collagen induced arthritis (CIA) model, liver weight; format: in vivo; details: given orally, FIG. 11
Experimental: 40 rats are injected with collagen to get 40 solid responders on days 10,11 for 4 groups of 10. Four nonimmunized animals serve as normal controls.
Collagen is prepared by making a 4 mg/ml solution in 0.01N Acetic acid. Equal volumes of collagen and Freund's incomplete adjuvant, are emulsified by hand mixing until a bead of this material holds its form when placed in water.
Animals (10 rats/group for arthritis, 4 rats/group for normal control).
Animals in groups 2-5 are anesthetized with isoflurane and given collagen injections (DO); each animal gets 300 μl of the mixture spread over 3 subcutaneous sites on the back. On Day 6 (D6) the animals are anesthetized again and given a second collagen injection, as before.
Rats are weighed on Days 0, 3, 6, and 9-17 of arthritis, and caliper measurements of ankles taken every day beginning on Day 9. Final body weights are taken on Day 17 of arthritis. On Day 17, all animals are anesthetized for terminal blood draw and then euthanized. Subsequently, hind paws and knees are removed, the hind paws are weighed and then (with knees) placed in formalin for processing for microscopy. Livers, spleen and thymus and kidneys are also removed, trimmed of extraneous tissue and weighed. Kidneys are retained in formalin for histopathology.
Sampling will occur over 1 day and involves groups 2-5 with samples retained from all groups.

primary human T cells = assay: Con A-induced cell proliferation of primary human T cells; format: cell-based; details: FIG. 6, read-out: IC50 for inhibition of Con A-induced cell proliferation
[3] = DNBS-induced colitis in rats (ulcerative colitis model for IBD); format: in vivo, rat; details: FIG. 20
Experimental: Procedure: Male Wistar rats weighing 200±20 g are fasted for 24 hours prior to use. Distal colitis is induced by intra-colonic instillation of DNBS (2,4-dinotrobenzene sulfonic acid, 20 mg in 0.5 ml ethanol 30%) with a catheter of 12 cm in length, followed by gentle injection of air (2 ml) through the catheter to ensure that the solution remain in the colon. The animals are divided into groups of 5 each. Test substance and vehicle are administered either daily or twice daily by appropriate route of administration 24 hour and 1 hour before DNBS instillation and then for 6 consecutive days thereafter. One normal control group is treated with 0.9% NaCl alone without DNBS challenge. […] During the experiment, body weight, fecal occult blood and stool consistency are monitored daily. Furthermore, when the abdominal cavity is opened before removal of the colon, adhesions between the colon and other organs are noted as is the presence of colonic ulceration after removal and weighing of each colon (a macroscopic damage score is recorded according to established score criteria). The colon-to-body weight ratio is calculated according to the formula: Colon (g)/BW×100. The “Net” increase in ratio of Vehicle-control+DNBS group relative to Vehicle-control group is used as a base for comparison with individual treated groups and expressed as “Dec. […]

RBL-2H3 cells = assay: TNF-α release assay (ELISA); format: cell-based; details: Rattus norvegicus; RBL-2H3 cells induced with TG/TPA; FIG. 3; read-out: IC50 for inhibition of TNF-alpha release
Experimental: To assess degranulation and cytokine release, RBL-2H3 cells were plated and stimulated with 20 nM thapsigargin/20 nM TPA for 20 hr in the presence or absence of compound of Formula (I) or Formula (II). Media was collected and assayed for the release of β-hexosaminidase or for the release of the inflammatory mediator cytokine TNF-α. The β-hexosaminidase enzymatic assay was performed by adding 200 μL 1 mM p-nitrophenyl-acetyl-glucosamide substrate (Sigma #N9376) in 0.05M Na Citrate (pH 4.5) to 50 μL of conditioned medium, incubating for 60 min at 37° C., then adding 500 μL 0.05M Na carbonate, 0.05M Na bicarbonate pH 10.5, mixing thoroughly, and reading the absorbance at 405 nm in a BioRad plate reader. The TNF-α release assay was performed using the Rat Tumor Necrosis Factor-a Ultrasensitive ELISA Kit from BioSource.

hOrail/hSTIM1 [4] = molecular target: T2, hOrail/hSTIM1; assay: Monster ICRAC in cells stably overexpressing hOrail/hSTIM1; format: cell-based; details: FIG. 15
rat T cells = assay: Cell proliferation of rat T cells; format: cell-based; details: FIG. 5, read-out: IC50 for inhibition of cell proliferation

effect on recombinant hOrail/hSTIM1-dependent Ca2+ entry (hOrail/hSTIM1 [1]): inhibition | reduction in liver weight [2]: no liver weight reduction | IC50 (RBL-2H3 cells): 3.3 µM | effect on Monster ICRAC (hOrail/hSTIM1 [4]): inhibit
SMILES: O=C(Nc1scc(-c2ccc(Br)cc2)c1C(=O)O)c1ccc(F)cc1 [Compound 1, 2-(4-fluorobenzamido)-4-(4-bromophenyl)thiophene-3-carboxylic acid]
effect on recombinant Cav1.2 L-type Ca2+ channels (hCav.1.2/β2/α2δ channels): inhibits | selectivity profile (SOCE): selective inhibitor of SOCE | effect on STIM1-dependent Ca2+ entry (HEK[STIM1] cells): concentration dependent inhibition; also recorded: blocked | IC50 (primary human T cells): ~3.7 µM | inflammation in the rat ulcerative colitis model for IBD [3]: inhibition of inflammation | IC50 (rat T cells): ~4.3 µM
